Paper PMC8193492, “Yeast Cell-Based Transport Assay for the Functional Characterization of Human 4F2hc-LAT1 and ‐LAT2, and LAT1 and LAT2 Substrates and Inhibitors” (Frontiers in Molecular Biosciences, 2021)
Several values for one entry are separate records, joined by “and”; a condition that tells them apart may be missing. Equal values may be shown once. Read-outs that look alike come from different tables or passages of the source. Values belong to the molecule of their own block, whether it stands above or below them.

Key:
human 4F2hc-LAT2 [1] = target: T1, human 4F2hc-LAT2 (Homo sapiens, UniProt Q9UHI5); test: [3H]L-leucine radioligand transport assay, P. pastoris cells expressing 4F2hc-LAT2; assay type: cell-based; details: P. pastoris KM71H cells, OD600 0.75, 0.1 µM [3H]L-leucine, 10 min uptake, 25°C; read-out: IC50 of L-leucine uptake, 4F2hc-LAT2 (this work)
T1 construct: expressed in transfected cells; host or cells: Pichia pastoris KM71H (pPICZB vector)
T1 sequence (Q9UHI5 1-535): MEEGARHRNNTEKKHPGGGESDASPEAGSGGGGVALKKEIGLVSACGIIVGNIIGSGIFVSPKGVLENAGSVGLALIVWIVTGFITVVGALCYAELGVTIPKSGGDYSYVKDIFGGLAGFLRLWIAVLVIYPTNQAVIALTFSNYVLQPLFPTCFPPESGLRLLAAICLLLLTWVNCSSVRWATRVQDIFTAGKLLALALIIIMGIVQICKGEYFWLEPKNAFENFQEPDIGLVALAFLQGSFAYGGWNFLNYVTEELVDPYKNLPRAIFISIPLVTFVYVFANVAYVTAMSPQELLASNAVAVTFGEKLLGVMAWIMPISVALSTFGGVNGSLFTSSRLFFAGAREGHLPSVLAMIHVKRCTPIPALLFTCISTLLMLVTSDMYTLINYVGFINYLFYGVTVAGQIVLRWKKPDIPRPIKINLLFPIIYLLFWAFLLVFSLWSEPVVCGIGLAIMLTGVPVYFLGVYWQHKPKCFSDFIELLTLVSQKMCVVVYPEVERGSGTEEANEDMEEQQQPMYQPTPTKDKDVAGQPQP
T1 sequence (P08195 1-529 partner): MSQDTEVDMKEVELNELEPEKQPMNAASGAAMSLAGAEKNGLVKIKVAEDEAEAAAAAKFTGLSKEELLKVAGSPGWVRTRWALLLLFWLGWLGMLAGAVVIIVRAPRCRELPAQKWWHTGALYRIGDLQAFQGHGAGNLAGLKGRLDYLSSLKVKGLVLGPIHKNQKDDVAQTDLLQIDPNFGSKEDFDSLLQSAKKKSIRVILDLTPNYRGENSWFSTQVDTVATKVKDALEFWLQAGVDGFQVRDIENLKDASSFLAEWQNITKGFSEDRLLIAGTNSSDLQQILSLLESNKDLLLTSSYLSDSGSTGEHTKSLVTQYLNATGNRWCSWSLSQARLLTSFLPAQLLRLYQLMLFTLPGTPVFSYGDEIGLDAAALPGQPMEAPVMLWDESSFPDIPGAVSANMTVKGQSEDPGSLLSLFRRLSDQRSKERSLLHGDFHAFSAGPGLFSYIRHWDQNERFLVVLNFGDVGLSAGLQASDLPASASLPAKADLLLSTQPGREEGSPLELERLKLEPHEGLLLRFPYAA

human LAT2 = target: T2, human LAT2 (Homo sapiens, UniProt Q9UHI5); test: [3H]L-leucine radioligand transport assay, P. pastoris cells expressing LAT2; assay type: cell-based; details: P. pastoris KM71H cells, OD600 0.75, 0.1 µM [3H]L-leucine, 10 min uptake, 25°C
T2 construct: expressed in transfected cells; host or cells: Pichia pastoris KM71H (pPICZB vector)
T2 sequence (Q9UHI5 1-535): T1 sequence (Q9UHI5 1-535)

4F2hc-LAT1 [2] = test system: 4F2hc-LAT1; parameters: method as in Yun et al. (2014); details: host YD-38; ref Yun et al. (2014); read-out: 4F2hc-LAT1 IC50 of L-leucine uptake; cited from earlier work
4F2hc-LAT1 [3] = details: host Saos2, read-out: 4F2hc-LAT1 IC50 of L-leucine uptake, cited from earlier work
human 4F2hc-LAT2 [4] = target: T1, human 4F2hc-LAT2; details: cited from earlier work; for IC50: host S2 cells, read-out: 4F2hc-LAT2 IC50 of L-leucine uptake
4F2hc-LAT1 [5] = test system: 4F2hc-LAT1; parameters: method as in Khunweeraphong et al. (2012); details: host HEK293; ref Khunweeraphong et al. (2012); read-out: 4F2hc-LAT1 IC50 of L-leucine uptake; cited from earlier work
4F2hc-LAT1 [6] = test system: 4F2hc-LAT1; parameters: method as in Kim et al. (2008); details: host C6 cells; reference cell empty, line above: ref Kim et al. (2008); read-out: 4F2hc-LAT1 IC50 of L-leucine uptake; cited from earlier work
4F2hc-LAT1 [7] = test system: 4F2hc-LAT1; parameters: method as in Kim et al. (2008); details: host KB cells; ref Kim et al. (2008); read-out: 4F2hc-LAT1 IC50 of L-leucine uptake; cited from earlier work
human LAT1 [8] = target: T3, human LAT1 (Homo sapiens, UniProt Q01650); test: cell-based
T3 sequence (Q01650 whole entry): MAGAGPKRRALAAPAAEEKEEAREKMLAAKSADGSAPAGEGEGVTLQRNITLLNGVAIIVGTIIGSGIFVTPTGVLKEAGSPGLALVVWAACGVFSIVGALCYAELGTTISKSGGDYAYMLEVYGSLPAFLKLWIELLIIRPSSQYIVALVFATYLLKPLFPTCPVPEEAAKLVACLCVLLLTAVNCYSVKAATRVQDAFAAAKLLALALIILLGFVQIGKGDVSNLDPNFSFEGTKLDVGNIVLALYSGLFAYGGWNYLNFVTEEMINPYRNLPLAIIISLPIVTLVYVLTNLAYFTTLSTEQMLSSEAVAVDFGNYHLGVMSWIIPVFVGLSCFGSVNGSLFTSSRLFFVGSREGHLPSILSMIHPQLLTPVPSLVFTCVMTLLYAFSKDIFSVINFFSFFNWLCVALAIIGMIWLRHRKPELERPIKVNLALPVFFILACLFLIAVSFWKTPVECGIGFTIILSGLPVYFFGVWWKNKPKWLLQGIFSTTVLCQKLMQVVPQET
Protocol: (§1) Resulting cells were resuspended in transport buffer (150 mM choline chloride, 1 mM MgCl2, 1 mM CaCl2, 10 mM Tris-HEPES, pH 7.4) containing 50% (v/v) glycerol and the OD600 was adjusted to 40. Cells were stored at −18°C until further use.
(§2) For transport studies, 1 ml of thawed P. pastoris cells (OD600 40) expressing the corresponding transporter were diluted in 50 ml transport buffer and pelleted by centrifugation (3,000 × g, 15 min, room temperature). The pellet was then washed by resuspending it in 50 mL transport buffer and by repeating the washing procedure (centrifugation and resuspension) two times. Finally, the cell pellet was resuspended in 2 ml of transport buffer and incubated for 20 min at 30°C under agitation (300 rpm, Multitron, Infors HT, Bottmingen, Switzerland). […] All transport experiments were performed in a reaction volume of 100 µL. […] The competitors were prepared in 100% (v/v) DMSO. The final DMSO concentration was always 0.5% (v/v), independently of which final substrate or inhibitor concentration was used in the assay. Control samples contained the same concentration of DMSO. Final OD600 values in uptake experiments were 0.75 for all cells (4F2hc-LAT1, LAT1, 4F2hc-LAT2 or LAT2 expressing cells) and untransformed P. pastoris KM71H cells. All transport reactions were done in 2 ml reaction tubes (Eppendorf, Hamburg, Germany) at 25°C under agitation (1,000 rpm, Thermomixer compact, Eppendorf, Hamburg, Germany). Uptakes were terminated after 10 min (uptake time) for all cells by adding 600 µL of pre-chilled transport buffer. Cells were rapidly separated from the buffer by transferring the stopped reactions on a 96-well 0.66 mm glass fiber filter plate (Corning FiltrEX, Corning, NY, United States) and vacuum filtration. Each well was washed with 2 ml of ice-cold transport buffer to remove free radioligand. The plate was then dried overnight at 37°C, and the backside was sealed with a BackSeal (PerkinElmer, Waltham, MA, United States). The trapped radioligand was released by addition of 200 µL scintillation cocktail (MicroScint 40, PerkinElmer, Waltham, MA, United States) to each well, and the plate topside was sealed with Topseal^TM-A Plus (PerkinElmer, Waltham, MA, United States), followed by incubation for 30 min at 25°C and 1,000 rpm (Thermomixer compact, Eppendorf, Hamburg, Germany). Counts were measured in each well for 2 min with a scintillation counter (TopCount NXT, PerkinElmer, Waltham, MA, United States).
(§3) Experiments were performed at least in triplicate. For data analysis, the signal of the untransformed P. pastoris cells was subtracted from the transporter signal to obtain the net transport signal. Data from three independent experiments were taken. […] Every experimental data point was then individually normalized using the corresponding upper plateau values (i.e., the fitted upper plateau value that corresponds to 100%). Single, normalized data points from the three independent experiments were averaged and a sigmoidal model curve was fitted to the data in order to obtain the IC50 values. Prism6 (GraphPad Software) was used for data analysis.

4F2hc-LAT1 [9] = details: cited from earlier work; for IC50: read-out: 4F2hc-LAT1 IC50 of L-leucine uptake
human 4F2hc-LAT1 = target: T4, human 4F2hc-LAT1 (Homo sapiens, UniProt Q01650); test: [3H]L-leucine radioligand transport assay, P. pastoris cells expressing 4F2hc-LAT1; assay type: cell-based
T4 construct: expressed in transfected cells; host or cells: Pichia pastoris KM71H (pPICZB vector)
T4 sequence (Q01650 whole entry, one chain of several): as the sequence (Q01650 whole entry) above

4F2hc-LAT1 [10] = test system: 4F2hc-LAT1; parameters: method as in Yothaisong et al. (2017); details: host KKU-213; ref Yothaisong et al. (2017); read-out: 4F2hc-LAT1 IC50 of L-leucine uptake; cited from earlier work
human LAT1 [11] = target: T3, human LAT1; details: Pichia cells expressing the light subunits alone
Protocol: as §1, §2, §3

4F2hc-LAT1 [12] = test system: 4F2hc-LAT1; parameters: method as in Häfliger et al. (2018); details: host SW1736; ref Häfliger et al. (2018); read-out: 4F2hc-LAT1 IC50 of L-leucine uptake; cited from earlier work
4F2hc-LAT1 [13] = test system: 4F2hc-LAT1; parameters: method as in Häfliger et al. (2018); details: host 8505c; ref Häfliger et al. (2018); read-out: 4F2hc-LAT1 IC50 of L-leucine uptake; cited from earlier work
4F2hc-LAT1 [14] = test system: 4F2hc-LAT1; parameters: method as in Yothaisong et al. (2017); details: host KKU-055; ref Yothaisong et al. (2017); read-out: 4F2hc-LAT1 IC50 of L-leucine uptake; cited from earlier work
4F2hc-LAT1 [15] = test system: 4F2hc-LAT1; parameters: method as in Yothaisong et al. (2017); details: host KKU-100; ref Yothaisong et al. (2017); read-out: 4F2hc-LAT1 IC50 of L-leucine uptake; cited from earlier work
4F2hc-LAT1 [16] = test system: 4F2hc-LAT1; parameters: method as in Häfliger et al. (2018); details: host HT-29; ref Häfliger et al. (2018); read-out: 4F2hc-LAT1 IC50 of L-leucine uptake; cited from earlier work
4F2hc-LAT2 [17] = test system: 4F2hc-LAT2; parameters: method as in Kantipudi et al. (2020); details: host Pichia pastoris, ref Kantipudi et al. (2020), cited from earlier work
4F2hc-LAT1 [18] = test system: 4F2hc-LAT1; parameters: method as in Kantipudi et al. (2020); details: host Pichia pastoris, ref Kantipudi et al. (2020), cited from earlier work
4F2hc-LAT1 [19] = details: host Oocytes, cited from earlier work
4F2hc-LAT2 [20] = test system: 4F2hc-LAT2; parameters: method as in Pineda et al. (1999); details: host Oocytes; ref Pineda et al. (1999); cited from earlier work
[21] = P. pastoris KM71H cells, OD600 0.75, 0.1 µM [3H]L-leucine, 10 min uptake, 25°C, read-out: IC50 of L-leucine uptake, 4F2hc-LAT1 (this work)

SMILES: NC1(C(=O)O)CC2CCC1C2 (stereo not shown) [BCH, 2-aminobicyclo-(2,2,1)-heptane-2-carboxylic acid]
IC50 (human 4F2hc-LAT2 [1]): 195 µM | IC50 (human LAT2): 184 µM | IC50 (4F2hc-LAT1 [2]): 92.6 ± 8.9 µM | IC50 (4F2hc-LAT1 [3]; ref Choi et al. (2017)): 72.2 ± 0.92 µM | IC50 (4F2hc-LAT1 [3]; ref Kim et al. (2008)): 78.8 ± 3.5 µM | IC50 (human 4F2hc-LAT2 [4]; ref Morimoto et al. (2008)): 315 ± 68.6 µM | IC50 (4F2hc-LAT1 [5]): 78.3 ± 12.1 µM | IC50 (4F2hc-LAT1 [6]): 73.1 ± 4.5 µM | IC50 (4F2hc-LAT1 [7]): 75.3 ± 6.7 µM | IC50 (human LAT1 [8]): 78 µM | IC50 (4F2hc-LAT1 [9]; host S2 cells, ref Morimoto et al. (2008)): 132 ± 27.8 µM | IC50 (human 4F2hc-LAT1; [21]): 72 µM | specificity for 4F2hc-LAT1 compared with 4F2hc-LAT2 (from IC50s) (human 4F2hc-LAT1; P. pastoris cell assay): about 2.7 fold

IC50 (human 4F2hc-LAT2 [1]): 1.5 µM | IC50 (human LAT2): 1.7 µM | IC50 (human LAT1 [8]): 0.346 µM | IC50(Pichia-LAT2)/IC50(Pichia-LAT1) ratio (human LAT1 [11]): about 4.9 | IC50 (human 4F2hc-LAT1; [21]): 0.197 µM | IC50(Pichia-4F2hc-LAT2)/IC50(Pichia-4F2hc-LAT1) ratio (human 4F2hc-LAT1; P. pastoris cell assay): about 7.6 | specificity for 4F2hc-LAT1 compared with 4F2hc-LAT2 (from IC50s) (human 4F2hc-LAT1; P. pastoris cell assay): about 7.6 fold
SMILES: Nc1cc(COc2c(Cl)cc(C[C@H](N)C(=O)O)cc2Cl)c2oc(-c3ccccc3)nc2c1 [JPH203, (S)-2-amino-3-(4-((5-amino-2-phenylbenzo [d]oxazol-7-yl)-methoxy)-3,5-dichlorophenyl)-propanoic acid]
IC50 (4F2hc-LAT1 [2]): 0.79 ± 0.06 µM | IC50 (4F2hc-LAT1 [3]; ref Choi et al. (2017)): 1.31 ± 0.27 µM | inhibition of human 4F2hc-LAT2 (human 4F2hc-LAT2 [4]; S2 cell-based assay, at 10 µM, ref Endou et al. (2008)): almost no inhibition | IC50 (human 4F2hc-LAT2 [4]; ref Oda et al. (2010)): > 10 µM | IC50 (4F2hc-LAT1 [10]): 0.12 ± 0.02 µM | IC50(S2-LAT2)/IC50(S2-LAT1) ratio (4F2hc-LAT1 [9]; S2 cells, ref Oda et al. (2010)): > 500 | IC50 (4F2hc-LAT1 [9]; host S2 cells, ref Endou et al. (2008)): 0.19 µM and 0.2 µM | IC50 (4F2hc-LAT1 [9]; host S2 cells, ref Oda et al. (2010)): 0.14 µM | IC50 (4F2hc-LAT1 [12]): 0.177 µM | IC50 (4F2hc-LAT1 [13]): 0.12 µM | IC50 (4F2hc-LAT1 [14]): 0.2 ± 0.03 µM | IC50 (4F2hc-LAT1 [15]): 0.25 ± 0.04 µM | IC50 (4F2hc-LAT1 [16]): 0.134 µM

IC50 (human 4F2hc-LAT2 [1]): 210 µM | IC50 (human LAT2): 39 µM | IC50 (human LAT1 [8]): 9 µM | IC50 (human 4F2hc-LAT1; [21]): 22 µM
SMILES: CC(C)C[C@H](N)C(=O)O [L-leucine]
IC50 (4F2hc-LAT2 [17]; read-out: 4F2hc-LAT2 IC50 of L-leucine uptake): 221 µM | Km (4F2hc-LAT2 [17]; read-out: 4F2hc-LAT2 KM of L-leucine uptake): 249 ± 22 µM | IC50 (4F2hc-LAT1 [18]; read-out: 4F2hc-LAT1 IC50 of L-leucine uptake): 38 µM | Km (4F2hc-LAT1 [18]; read-out: 4F2hc-LAT1 KM of L-leucine uptake): 25 ± 3 µM | Km (4F2hc-LAT1 [19]; ref Friesema et al. (2001)): 46 µM | Km (4F2hc-LAT1 [19]; ref Kanai et al. (1998)): 18.1 ± 3.4 µM | Km (4F2hc-LAT1 [19]; ref Yanagida et al. (2001)): 19.7 ± 4.1 µM | Km (4F2hc-LAT2 [20]): 220 µM

SMILES: N[C@@H](Cc1cc(I)c(Oc2ccc(O)c(I)c2)c(I)c1)C(=O)O [T3, triiodothyronine]
Km (4F2hc-LAT1 [19]; ref Friesema et al. (2001)): 0.8 µM | Km (4F2hc-LAT1 [19]; ref Ritchie et al. (1999)): 1.8 µM

SMILES: NC(Cc1cc(I)c(Oc2cc(I)c(O)c(I)c2)c(I)c1)C(=O)O (stereo not shown) [T4, thyroxine]
IC50 (human 4F2hc-LAT2 [1]): 42 µM | IC50 (human LAT2): 25 µM | IC50 (human LAT1 [8]): 8 µM | Ki (4F2hc-LAT1 [9]; host S2 cells, ref Morimoto et al. (2008), read-out: 4F2hc-LAT1 Ki of L-leucine uptake): 115 ± 2 µM | Km (4F2hc-LAT1 [19]; ref Friesema et al. (2001)): 7.9 µM | Km (4F2hc-LAT1 [19]; ref Ritchie et al. (1999)): 6.3 µM | IC50 (human 4F2hc-LAT1): 10 µM | specificity for 4F2hc-LAT1 compared with 4F2hc-LAT2 (from IC50s) (human 4F2hc-LAT1; P. pastoris cell assay): about four-times higher
